One block for each compound: values may come before it.
System: 323965-272-R-J2-PDC complex spheroid growth, % test/control
Assay: Anticancer human tumor 323965-272-R-J2-PDC patient-derived pancreatic carcinoma cell line growth inhibition [Asc]
Settings: for IC50: curve of first compound; for viability, T/C: stronger effect = lower value
Outline: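 Spheroid model: tumor line + HUVEC + hMSC. Single agents and combinations; top conc. at/near clinical Cmax (10 microM if undetermined), half-log dilutions. DMSO stocks at 800-fold test concentration.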

[1] = second compound 0.0316 µM, first compound 0.0316 µM
[2] = second compound 0.0316 µM, first compound 0.1 µM
[3] = second compound 0.0316 µM, first compound 0.316 µM
[4] = second compound 0.0316 µM, first compound 1 µM
[5] = second compound 0.0316 µM, first compound 3.16 µM
[6] = second compound 0.0316 µM, first compound 10 µM
[7] = second compound 0.1 µM, first compound 0.0316 µM
[8] = second compound 0.1 µM, first compound 0.1 µM
[9] = second compound 0.1 µM, first compound 0.316 µM
[10] = second compound 0.1 µM, first compound 1 µM
[11] = second compound 0.1 µM, first compound 3.16 µM
[12] = second compound 0.1 µM, first compound 10 µM
[13] = second compound 0.316 µM, first compound 0.0316 µM
[14] = second compound 0.316 µM, first compound 0.1 µM
[15] = second compound 0.316 µM, first compound 0.316 µM
[16] = second compound 0.316 µM, first compound 1 µM
[17] = second compound 0.316 µM, first compound 3.16 µM
[18] = second compound 0.316 µM, first compound 10 µM
[19] = second compound 1 µM, first compound 0.0316 µM
[20] = second compound 1 µM, first compound 0.1 µM
[21] = second compound 1 µM, first compound 0.316 µM
[22] = second compound 1 µM, first compound 1 µM
[23] = second compound 1 µM, first compound 3.16 µM
[24] = second compound 1 µM, first compound 10 µM
[25] = second compound 3.16 µM, first compound 0.0316 µM
[26] = second compound 3.16 µM, first compound 0.1 µM
[27] = second compound 3.16 µM, first compound 0.316 µM
[28] = second compound 3.16 µM, first compound 1 µM
[29] = second compound 3.16 µM, first compound 3.16 µM
[30] = second compound 3.16 µM, first compound 10 µM
[31] = second compound 10 µM, first compound 0.0316 µM
[32] = second compound 10 µM, first compound 0.1 µM
[33] = second compound 10 µM, first compound 0.316 µM
[34] = second compound 10 µM, first compound 1 µM
[35] = second compound 10 µM, first compound 3.16 µM
[36] = second compound 10 µM, first compound 10 µM
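Note: compound exposure lasted 7 days starting three days after spheroid seeding.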
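Throughout, for viability, T/C: 100% = DMSO vehicle control wells with viability set relative to vehicle.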

IC50 (second compound 0.0316 µM): 4.34 µM
IC50 (second compound 0.1 µM): 4.22 µM
IC50 (second compound 0.316 µM): 3.72 µM
IC50 (second compound 1 µM): 3.41 µM
IC50 (second compound 3.16 µM): < 0.0316 µM
IC50 (second compound 10 µM): < 0.0316 µM
Structure (SMILES): C=C(F)C(=O)N1CCN(c2nc(OCC3CCCN3C)nc3c2CCN(c2cccc4cccc(Cl)c24)C3)CC1CC#N (stereo unspecified) + Cc1c(S(C)(=O)=O)c(-c2cc(F)cc(N3CCN(c4ccc(NS(=O)(=O)c5ccc(NC(CCN6CCC(C(=O)OCCCP(=O)(O)O)CC6)CSc6ccccc6)c(S(=O)(=O)C(F)(F)F)c5)cc4)CC3)c2)c(-c2ccc(Cl)cc2)n1C(C)C
viability, T/C [1]: 70.5%
viability, T/C [2]: 62.3%
viability, T/C [3]: 59.3%
viability, T/C [4]: 62.1%
viability, T/C [5]: 75%
viability, T/C [6]: 8.41%
viability, T/C [7]: 69.7%
viability, T/C [8]: 61.2%
viability, T/C [9]: 60.1%
viability, T/C [10]: 66.7%
viability, T/C [11]: 72.2%
viability, T/C [12]: 2.28%
viability, T/C [13]: 62.3%
viability, T/C [14]: 52.4%
viability, T/C [15]: 54.4%
viability, T/C [16]: 62.2%
viability, T/C [17]: 60.1%
viability, T/C [18]: 0.32%
viability, T/C [19]: 56%
viability, T/C [20]: 50.8%
viability, T/C [21]: 51.3%
viability, T/C [22]: 55.1%
viability, T/C [23]: 54.1%
viability, T/C [24]: 0.2%
viability, T/C [25]: 51.4%
viability, T/C [26]: 41.2%
viability, T/C [27]: 45%
viability, T/C [28]: 41.8%
viability, T/C [29]: 36.8%
viability, T/C [30]: 0.16%
viability, T/C [31]: 44.1%
viability, T/C [32]: 43.5%
viability, T/C [33]: 34.5%
viability, T/C [34]: 41.4%
viability, T/C [35]: 34.4%
viability, T/C [36]: 0.16%

IC50 (second compound 0.0316 µM): > 10 µM
IC50 (second compound 0.1 µM): > 10 µM
IC50 (second compound 0.316 µM): > 10 µM
IC50 (second compound 1 µM): > 10 µM
IC50 (second compound 3.16 µM): 0.0793 µM
IC50 (second compound 10 µM): < 0.0316 µM
Structure (SMILES): C=CC(=O)N1CCN(c2nc(=O)n(-c3c(C)ccnc3C(C)C)c3nc(-c4c(O)cccc4F)c(F)cc23)C(C)C1 (stereo unspecified) + Cc1c(S(C)(=O)=O)c(-c2cc(F)cc(N3CCN(c4ccc(NS(=O)(=O)c5ccc(NC(CCN6CCC(C(=O)OCCCP(=O)(O)O)CC6)CSc6ccccc6)c(S(=O)(=O)C(F)(F)F)c5)cc4)CC3)c2)c(-c2ccc(Cl)cc2)n1C(C)C
viability, T/C [1]: 82.1%
viability, T/C [2]: 64.8%
viability, T/C [3]: 65.9%
viability, T/C [4]: 62.3%
viability, T/C [5]: 63.7%
viability, T/C [6]: 67%
viability, T/C [7]: 74.3%
viability, T/C [8]: 64.4%
viability, T/C [9]: 68%
viability, T/C [10]: 64.2%
viability, T/C [11]: 66.7%
viability, T/C [12]: 56.8%
viability, T/C [13]: 76.8%
viability, T/C [14]: 60.1%
viability, T/C [15]: 56.1%
viability, T/C [16]: 59%
viability, T/C [17]: 58.6%
viability, T/C [18]: 53.5%
viability, T/C [19]: 65.3%
viability, T/C [20]: 59.5%
viability, T/C [21]: 57%
viability, T/C [22]: 54.5%
viability, T/C [23]: 61.4%
viability, T/C [24]: 46%
viability, T/C [25]: 62.2%
viability, T/C [26]: 47.4%
viability, T/C [27]: 43.2%
viability, T/C [28]: 38.4%
viability, T/C [29]: 43.8%
viability, T/C [30]: 44%
viability, T/C [31]: 48.2%
viability, T/C [32]: 40.9%
viability, T/C [33]: 39.7%
viability, T/C [34]: 40.5%
viability, T/C [35]: 44.9%
viability, T/C [36]: 39%

IC50 (second compound 0.0316 µM): > 3 µM
IC50 (second compound 0.1 µM): > 3 µM
IC50 (second compound 0.316 µM): > 3 µM
IC50 (second compound 1 µM): > 3 µM
IC50 (second compound 3.16 µM): 1.87 µM
IC50 (second compound 10 µM): 1.18 µM
Structure (SMILES): CCN1C(C(=O)NC23CCC(C(=O)O)(CC2)CC3)C(c2cccc(Cl)c2F)C2(C(=O)Nc3cc(Cl)ccc32)C12CCCCC2 (stereo unspecified) + Cc1c(S(C)(=O)=O)c(-c2cc(F)cc(N3CCN(c4ccc(NS(=O)(=O)c5ccc(NC(CCN6CCC(C(=O)OCCCP(=O)(O)O)CC6)CSc6ccccc6)c(S(=O)(=O)C(F)(F)F)c5)cc4)CC3)c2)c(-c2ccc(Cl)cc2)n1C(C)C
viability, T/C (second compound 0.0316 µM, first compound 0.00949 µM): 117%
viability, T/C (second compound 0.0316 µM, first compound 0.03 µM): 103%
viability, T/C (second compound 0.0316 µM, first compound 0.0949 µM): 88.5%
viability, T/C (second compound 0.0316 µM, first compound 0.3 µM): 101%
viability, T/C (second compound 0.0316 µM, first compound 0.949 µM): 98.8%
viability, T/C (second compound 0.0316 µM, first compound 3 µM): 93.8%
viability, T/C (second compound 0.1 µM, first compound 0.00949 µM): 110%
viability, T/C (second compound 0.1 µM, first compound 0.03 µM): 94.2%
viability, T/C (second compound 0.1 µM, first compound 0.0949 µM): 104%
viability, T/C (second compound 0.1 µM, first compound 0.3 µM): 101%
viability, T/C (second compound 0.1 µM, first compound 0.949 µM): 88.4%
viability, T/C (second compound 0.1 µM, first compound 3 µM): 81.8%
viability, T/C (second compound 0.316 µM, first compound 0.00949 µM): 89.4%
viability, T/C (second compound 0.316 µM, first compound 0.03 µM): 97.9%
viability, T/C (second compound 0.316 µM, first compound 0.0949 µM): 94.5%
viability, T/C (second compound 0.316 µM, first compound 0.3 µM): 87.1%
viability, T/C (second compound 0.316 µM, first compound 0.949 µM): 90%
viability, T/C (second compound 0.316 µM, first compound 3 µM): 65.3%
viability, T/C (second compound 1 µM, first compound 0.00949 µM): 95.3%
viability, T/C (second compound 1 µM, first compound 0.03 µM): 81.8%
viability, T/C (second compound 1 µM, first compound 0.0949 µM): 86.5%
viability, T/C (second compound 1 µM, first compound 0.3 µM): 80.3%
viability, T/C (second compound 1 µM, first compound 0.949 µM): 81.8%
viability, T/C (second compound 1 µM, first compound 3 µM): 54%
viability, T/C (second compound 3.16 µM, first compound 0.00949 µM): 70.6%
viability, T/C (second compound 3.16 µM, first compound 0.03 µM): 76.3%
viability, T/C (second compound 3.16 µM, first compound 0.0949 µM): 75.9%
viability, T/C (second compound 3.16 µM, first compound 0.3 µM): 69.4%
viability, T/C (second compound 3.16 µM, first compound 0.949 µM): 64.7%
viability, T/C (second compound 3.16 µM, first compound 3 µM): 40.1%
viability, T/C (second compound 10 µM, first compound 0.00949 µM): 71.7%
viability, T/C (second compound 10 µM, first compound 0.03 µM): 67%
viability, T/C (second compound 10 µM, first compound 0.0949 µM): 71.9%
viability, T/C (second compound 10 µM, first compound 0.3 µM): 62.1%
viability, T/C (second compound 10 µM, first compound 0.949 µM): 54.2%
viability, T/C (second compound 10 µM, first compound 3 µM): 34%
